Measurements as given in patent US6737383B1, “Herbicidal oxadiazolidines” (priority 1999, dated 2004).

Assays:
wheat = test: Test B pre/postemergence wheat; type: in vivo, Triticum aestivum
Summary of the method: (§1)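 Response is a visual 0-to-10 score relative to untreated plants, where 0 means no effect and 10 means complete control, taken twelve to sixteen days after application. Treatments went onto soil at planting and onto foliage of 1- to 4-leaf plants, using a surfactant-containing non-phytotoxic solvent.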

wild oat = test: Test B pre/postemergence wild oat; type: in vivo, Avena fatua
Summary of the method: as §1

giant foxtail = test: Test B pre/postemergence giant foxtail; type: in vivo, Setaria faberii
Summary of the method: as §1

soybean = test: Test B pre/postemergence soybean; type: in vivo, Glycine max
Summary of the method: as §1

rice = test: Test B flood test rice; type: in vivo, Oryza sativa
Summary of the method: (§2)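 Flood test on plants grown to the 2-leaf stage; treated plants kept in greenhouse twelve to sixteen days, then visually rated against controls on a 0 (no effect) to 10 (complete control) scale.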

velvetleaf = test: Test B pre/postemergence velvetleaf; type: in vivo, Abutilon theophrasti
Summary of the method: as §1

smallflower flatsedge = test: Test B flood test smallflower flatsedge; type: in vivo, Cyperus difformis
Summary of the method: as §2

corn = test: Test B pre/postemergence corn; type: in vivo, Zea mays
Summary of the method: as §1

purple nutsedge = test: Test B pre/postemergence purple nutsedge; type: in vivo, Cyperus rotundus
Summary of the method: as §1

rape = test: Test B pre/postemergence rape; type: in vivo, Brassica napus
Summary of the method: as §1

sugar beet = test: Test B pre/postemergence sugar beet; type: in vivo, Beta vulgaris
Summary of the method: as §1

pigweed = test: Test B pre/postemergence pigweed; type: in vivo, Amaranthus retroflexus
Summary of the method: as §1

duck salad = test: Test B flood test duck salad; type: in vivo, Heteranthera limosa
Summary of the method: as §2

cocklebur = test: Test B pre/postemergence cocklebur; type: in vivo, Xanthium strumarium
Summary of the method: as §1

surinam grass = test: Test B pre/postemergence surinam grass; type: in vivo, Brachiaria decumbens
Summary of the method: as §1

bedstraw = test: Test B pre/postemergence bedstraw; type: in vivo, Galium aparine
Summary of the method: as §1

[1] = Postemergence, Rate 62 g/ha, scale 0 to 10, 0 is no effect, 10 is complete control
[2] = Postemergence, Rate 250 g/ha, scale 0 to 10, 0 no effect, 10 complete control
[3] = Preemergence, Rate 62 g/ha, scale 0 to 10, 0 is no effect, 10 is complete control
[4] = Preemergence, Rate 125 g/ha, scale 0 to 10 (0 no effect, 10 complete control)
[5] = Preemergence, Rate 250 g/ha, scale of 0 to 10 where 0 is no effect and 10 is complete control
[6] = Preemergence, Rate 500 g/ha, scale 0 (no effect) to 10 (complete control)
[7] = Rate 125 g/ha, Postemergence, scale 0 to 10, 0 no effect, 10 complete control
[8] = Rate 500 g/ha, Postemergence, scale 0 to 10, 0 no effect, 10 complete control
[9] = Rate 125 g/ha, Postemergence section (flood test species), scale 0 to 10, 0 no effect, 10 complete control
[10] = Rate 500 g/ha, listed under Postemergence (flood test species), scale 0 to 10, 0 no effect, 10 complete control
[11] = flood test, listed under Postemergence, Rate 250 g/ha, scale 0 to 10, 0 no effect, 10 complete control

## Cc1ccccc1-n1c(=O)on(C(=O)N(c2ccc(C#N)cc2)C(C)C)c1=O [Compound 51]
wheat; [1]
  Wheat plant response rating: 0
wheat; [2]
  Wheat plant response rating: 0
wheat; [3]
  Plant response rating, Wheat: 0
wheat; [4]
  Plant response rating, Wheat: 0
wheat; [5]
  Plant response rating, Wheat: 0
wheat; [6]
  Wheat plant response rating: 0
wheat; [7]
  Wheat plant response rating: 0
wheat; [8]
  Wheat plant response rating: 0
Wild oat; [1]
  Wild oats plant response rating: 0
Wild oat; [2]
  Wild oats plant response rating: 0
Wild oat; [4]
  Plant response rating, Wild oats: 0
Wild oat; [5]
  Plant response rating, Wild oats: 0
Wild oat; [6]
  Wild oats plant response rating: 0
Wild oat; [7]
  Wild oats plant response rating: 0
Wild oat; [8]
  Wild oats plant response rating: 0
Giant foxtail; [1]
  Giant foxtail plant response rating: 0
Giant foxtail; [2]
  Giant foxtail plant response rating: 0
Giant foxtail; [3]
  Plant response rating, Giant foxtail: 0
Giant foxtail; [4]
  Plant response rating, Giant foxtail: 2
Giant foxtail; [5]
  Plant response rating, Giant foxtail: 4
Giant foxtail; [6]
  Giant foxtail plant response rating: 8
Giant foxtail; [7]
  Giant foxtail plant response rating: 0
Giant foxtail; [8]
  Giant foxtail plant response rating: 3
soybean; [1]
  Soybean plant response rating: 0
soybean; [2]
  Soybean plant response rating: 0
soybean; [3]
  Plant response rating, Soybean: 0
soybean; [4]
  Plant response rating, Soybean: 0
soybean; [5]
  Plant response rating, Soybean: 0
soybean; [6]
  Soybean plant response rating: 0
soybean; [7]
  Soybean plant response rating: 0
soybean; [8]
  Soybean plant response rating: 1
rice; [1]
  Rice plant response rating: 0
rice; [9]
  Rice plant response rating: 0
rice; [10]
  Rice plant response rating: 0
rice; [11]
  Rice plant response rating: 0
velvetleaf; [1]
  Velvetleaf plant response rating: 0
velvetleaf; [2]
  Velvetleaf plant response rating: 0
velvetleaf; [3]
  Plant response rating, Velvetleaf: 0
velvetleaf; [4]
  Plant response rating, Velvetleaf: 0
velvetleaf; [5]
  Plant response rating, Velvetleaf: 0
velvetleaf; [6]
  Velvetleaf plant response rating: 0
velvetleaf; [7]
  Velvetleaf plant response rating: 0
velvetleaf; [8]
  Velvetleaf plant response rating: 0
Smallflower flatsedge; [1]
  S. Flatsedge plant response rating: 0
Smallflower flatsedge; [9]
  S. Flatsedge plant response rating: 0
Smallflower flatsedge; [10]
  S. Flatsedge plant response rating: 0
Smallflower flatsedge; [11]
  S. Flatsedge plant response rating: 0
corn; [1]
  Corn plant response rating: 0
corn; [2]
  Corn plant response rating: 0
corn; [3]
  Plant response rating, Corn: 0
corn; [4]
  Plant response rating, Corn: 0
corn; [5]
  Plant response rating, Corn: 0
corn; [6]
  Corn plant response rating: 0
corn; [7]
  Corn plant response rating: 0
corn; [8]
  Corn plant response rating: 0
Purple nutsedge; [1]
  Nutsedge plant response rating: 0
Purple nutsedge; [2]
  Nutsedge plant response rating: 0
Purple nutsedge; [3]
  Plant response rating, Nutsedge: 0
Purple nutsedge; [4]
  Plant response rating, Nutsedge: 0
Purple nutsedge; [5]
  Plant response rating, Nutsedge: 0
Purple nutsedge; [6]
  Nutsedge plant response rating: 0
Purple nutsedge; [7]
  Nutsedge plant response rating: 0
Purple nutsedge; [8]
  Nutsedge plant response rating: 0
rape; [1]
  Rape plant response rating: 0
rape; [2]
  Rape plant response rating: 0
rape; [3]
  Plant response rating, Rape: 0
rape; [4]
  Plant response rating, Rape: 0
rape; [5]
  Plant response rating, Rape: 0
rape; [6]
  Rape plant response rating: 0
rape; [7]
  Rape plant response rating: 0
rape; [8]
  Rape plant response rating: 0
Sugar beet; [1]
  Sugarbeets plant response rating: 0
Sugar beet; [2]
  Sugarbeets plant response rating: 0
Sugar beet; [3]
  Plant response rating, Sugarbeets: 0
Sugar beet; [4]
  Plant response rating, Sugarbeets: 0
Sugar beet; [5]
  Plant response rating, Sugarbeets: 0
Sugar beet; [6]
  Sugarbeets plant response rating: 0
Sugar beet; [7]
  Sugarbeets plant response rating: 0
Sugar beet; [8]
  Sugarbeets plant response rating: 0
pigweed; [1]
  Redroot pigweed plant response rating: 0
pigweed; [2]
  Redroot pigweed plant response rating: 0
pigweed; [3]
  Plant response rating, Redroot pigweed: 0
pigweed; [4]
  Plant response rating, Redroot pigweed: 0
pigweed; [5]
  Plant response rating, Redroot pigweed: 0
pigweed; [6]
  Redroot pigweed plant response rating: 0
pigweed; [7]
  Redroot pigweed plant response rating: 0
pigweed; [8]
  Redroot pigweed plant response rating: 0
Duck salad; [1]
  Ducksalad plant response rating: 0
Duck salad; [9]
  Ducksalad plant response rating: 0
Duck salad; [10]
  Ducksalad plant response rating: 0
Duck salad; [11]
  Ducksalad plant response rating: 0
cocklebur; [1]
  Cocklebur plant response rating: 0
cocklebur; [2]
  Cocklebur plant response rating: 0
cocklebur; [3]
  Plant response rating, Cocklebur: 0
cocklebur; [4]
  Plant response rating, Cocklebur: 0
cocklebur; [5]
  Plant response rating, Cocklebur: 0
cocklebur; [6]
  Cocklebur plant response rating: 0
cocklebur; [7]
  Cocklebur plant response rating: 0
cocklebur; [8]
  Cocklebur plant response rating: 0
Surinam grass; [1]
  B. signalgrass plant response rating: 0
Surinam grass; [2]
  B. signalgrass plant response rating: 0
Surinam grass; [3]
  Plant response rating, B. signalgrass: 0
Surinam grass; [4]
  Plant response rating, B. signalgrass: 0
Surinam grass; [5]
  Plant response rating, B. signalgrass: 0
Surinam grass; [6]
  B. signalgrass plant response rating: 0
Surinam grass; [7]
  B. signalgrass plant response rating: 0
Surinam grass; Rate 500 g/ha, Postemergence, scale of 0 to 10 where 0 is no effect and 10 is complete control
  B. signalgrass plant response rating: 0
bedstraw; [1]
  Bedstraw plant response rating: 0
bedstraw; [2]
  Bedstraw plant response rating: 0
bedstraw; [3]
  Plant response rating, Bedstraw: 0
bedstraw; [4]
  Plant response rating, Bedstraw: 0
bedstraw; [5]
  Plant response rating, Bedstraw: 0
bedstraw; [6]
  Bedstraw plant response rating: 0
bedstraw; [7]
  Bedstraw plant response rating: 0
